US20250380696A1, “METHOD FOR CONTROLLING UNDESIRED PLANTS AND PROMOTING GROWTH OF USEFUL PLANTS” (ISHIHARA SANGYO KAISHA, LTD., priority 2022, published 2025)

Assays:
[1] = tested on: Italian ryegrass (Lolium multiflorum); experiment: (4) Herbicidal effect test, pot, spray at 2.5 to 3.0 leaf stage; type: in vivo; details: 7th day after spraying
Source text: (§1) [formula] • X: growth inhibition rate when treated with α (g/ha) of compound A, • Y: growth inhibition rate when treated with β (g/ha) of compound B, • E: growth inhibition rate expected when treated with α (g/ha) of compound A and β (g/ha) of compound B (expected value).
(§2) Upland soil was put in a 1/1,000,000 hectare pot, and seeds of Italian ryegrass (Lolium multiflorum) were sown. When the Italian ryegrass reached 2.5 to 3.0 leaf stage, a water-based suspension containing tiafenacil as the active ingredient, prepared by a conventional method for preparing a water-based suspension, and a wettable powder containing metribuzin as the active ingredient (tradename: SENCOR wettable powder, manufactured by Bayer Crop Science) were diluted with water (in an amount corresponding to 200 liter per hectare) containing 0.5 vol % of an agricultural spreader (tradename: Destiny HC, manufactured by Winfield Solutions, LLC.) and sprayed by a small spray gun (model: W-101-132G, manufactured by ANEST IWATA Corporation).
On the 7th day after spraying, the state of growth of the Italian ryegrass was visually observed, and the growth inhibition rate (%) was obtained in accordance with the evaluation standards described in the above (1) herbicidal effect test, and the results are shown in Table 4. Further, the expected value of the growth inhibition rate (%) was calculated in accordance with the Colby's formula described in the above (1) herbicidal effect test, and the results are also shown in Table 4.

[2] = tested on: Italian ryegrass (Lolium multiflorum); experiment: (1) Herbicidal effect test, pot, spray at 2.3 to 3.0 leaf stage; type: in vivo; details: 6th day after spraying
Protocol: as §2, with “2.3” for “2.5”, “an emulsifiable concentrate” for “a wettable powder”, “S-metolachlor” for “metribuzin”, “Dual Gold,” for “SENCOR wettable powder,”, “Syngenta),” for “Bayer Crop Science)”, “Corporation). On the 6th day after spraying, the state of growth of the Italian ryegrass was visually observed, and the growth inhibition rate (%) was obtained based on the following standards and the results are shown in Table 1.” for “Corporation).”
Further, the expected value of the growth inhibition rate (%) was calculated in accordance with the following Colby's formula (S. R. Colby, “Weeds”, vol. 15 ([…]), p. 20-22) and the results are also shown in Table 1.
as §1
That is, when the growth inhibition rate of the composition of the present invention is higher than E (expected value of growth inhibition rate) calculated by the above formula, the combination can be regarded as having a synergistic effect.

`COC(=O)CCNC(=O)C(C)Sc1cc(-n2c(=O)cc(C(F)(F)F)n(C)c2=O)c(F)cc1Cl` (stereo not shown) [tiafenacil] was tested, and the “Growth inhibition rate (%) Measured value” ([1]; Dose 6.25 g/ha) was 30%, the “Growth inhibition rate (%) Measured value” ([2]; Dose 12.5 g/ha) was 75% and the “Growth inhibition rate (%) Measured value” ([2]; Dose 25 g/ha) was 83%.

In the case of `CSc1nnc(C(C)(C)C)c(=O)n1N` [metribuzin], the inhibition at 9.38 g/ha ([1]; Lolium multiflorum, Dose 9.38 g/ha, read-out: Growth inhibition rate (%) Measured value) is reported as 0%, the inhibition at 275 g/ha ([1]; Lolium multiflorum, Dose 275 g/ha, read-out: Growth inhibition rate (%) Measured value) is reported as 45% and the inhibition at 550 g/ha ([1]; Lolium multiflorum, Dose 550 g/ha, read-out: Growth inhibition rate (%) Measured value) is reported as 57%. It also gave an inhibition at 1100 g/ha ([1]; Lolium multiflorum, Dose 1100 g/ha, read-out: Growth inhibition rate (%) Measured value) of 88%.

In the case of `CCc1cccc(C)c1N(C(=O)CCl)[C@@H](C)COC` [S-metolachlor], the “Growth inhibition rate (%) Measured value” ([2]; Dose 125 g/ha) is reported as 0%, the “Growth inhibition rate (%) Measured value” ([2]; Dose 250 g/ha) is reported as 1% and the “Growth inhibition rate (%) Measured value” ([2]; Dose 375 g/ha) is reported as 3%. The “Growth inhibition rate (%) Measured value” ([2]; Dose 750 g/ha) was 4%, the “Growth inhibition rate (%) Measured value” ([2]; Dose 1500 g/ha) was 5% and the “Growth inhibition rate (%) Measured value” ([2]; Dose 3000 g/ha) was 5%.
